Test results as given in ChEMBL document CHEMBL1201862, “PubChem BioAssay data set” (2004).
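Values below derive from 48-hour exposures of cells grown in 96-well plates, with endpoints linearly interpolated between the two concentrations bracketing the appropriate inhibition level. GI50 = concentration required for 50% inhibition of growth.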 Activity calls are given as the source filed them. Rule as the data show it: active = GI50 up to about 1.1 µM and inactive = higher. Where a SMILES comes first, the peptide text is derived from it. The star is where a group is joined. Boc = CC(C)(C)OC(=O)*

What was measured:
Assay in all cases: NCI tumour cell line growth inhibition, 48 h
CAKI-1 = test system: CAKI-1
DU-145 = test system: DU-145
SR = test system: SR
SK-MEL-28 = test system: SK-MEL-28
NCI-H23 = test system: NCI-H23
SW-620 = test system: SW-620
ACHN = test system: ACHN
HT-29 = test system: HT-29
CCRF-CEM = test system: CCRF-CEM
SK-MEL-5 = test system: SK-MEL-5
UO-31 = test system: UO-31
T47D = test system: T47D
MOLT-4 = test system: MOLT-4
SNB-19 = test system: SNB-19
SN12C = test system: SN12C
HOP-92 = test system: HOP-92
KM12 = test system: KM12
SF-268 = test system: SF-268
A498 = test system: A498

SMILES | GI50 (CAKI-1) | GI50 (DU-145) | GI50 (SR) | GI50 (SK-MEL-28) | GI50 (NCI-H23) | GI50 (SW-620) | GI50 (ACHN) | GI50 (HT-29) | GI50 (CCRF-CEM) | GI50 (SK-MEL-5) | GI50 (UO-31) | GI50 (T47D) | GI50 (MOLT-4) | GI50 (SNB-19) | GI50 (SN12C) | GI50 (HOP-92) | GI50 (KM12) | GI50 (SF-268) | GI50 (A498)
CN(C(=O)c1ccc2c(c1)sc1c(=O)n(C)c3ccccc3c12)c1ccccc1 | > 100 µM (inactive) | > 100 µM (inactive) | > 100 µM (inactive) | > 100 µM (inactive) | > 100 µM (inactive) | > 100 µM (inactive) | 33.7 µM (inactive) | > 100 µM (inactive) | > 100 µM (inactive) | > 100 µM (inactive) | 37.7 µM (inactive) | > 100 µM (inactive) | > 100 µM (inactive) | > 100 µM (inactive) | > 100 µM (inactive) | > 100 µM (inactive) | > 100 µM (inactive) | – | –
CC(C)(C)OC(=O)NCC(c1c[nH]c2cc(Br)ccc12)c1c[nH]c2cc(Br)ccc12 | 26.9 µM (inactive) | 17.7 µM (inactive) | > 100 µM (inactive) | 29.2 µM (inactive) | 18.2 µM (inactive) | 28.9 µM (inactive) | 16.7 µM (inactive) | 16.9 µM (inactive) | 62.1 µM (inactive) | 17.3 µM (inactive) | 17.5 µM (inactive) | 17.6 µM (inactive) | 34.6 µM (inactive) | 21.8 µM (inactive) | 18.5 µM (inactive) | 14.9 µM (inactive) | 18.3 µM (inactive) | 16.3 µM (inactive) | –
O/N=C(\C=N\O)c1ccc2c(c1)Sc1ccccc1O2 | 23.8 µM (inactive) | 39.8 µM (inactive) | 19.7 µM (inactive) | 30.5 µM (inactive) | 21.6 µM (inactive) | 22.9 µM (inactive) | 19.9 µM (inactive) | 21.4 µM (inactive) | 2.39 µM (inactive) | – | 21.4 µM (inactive) | 24.5 µM (inactive) | 5.43 µM (inactive) | 24.2 µM (inactive) | 17.5 µM (inactive) | 15.6 µM (inactive) | 33 µM (inactive) | 16.8 µM (inactive) | 15.6 µM (inactive)
COc1cc(C2S/C(=C/c3ccccc3)C(=O)N2c2ccc(Cl)cc2)cc(OC)c1OC (configuration not stated) | 20.9 µM (inactive) | 54.2 µM (inactive) | 70 µM (inactive) | 63.2 µM (inactive) | 12.7 µM (inactive) | 12.9 µM (inactive) | 0.178 µM (active) | 23.8 µM (inactive) | 4.4 µM (inactive) | 0.492 µM (active) | – | 0.705 µM (active) | 5.79 µM (inactive) | > 88.7 µM (inactive) | 39.1 µM (inactive) | 5.92 µM (inactive) | 11.3 µM (inactive) | 8.24 µM (inactive) | 53.8 µM (inactive)
C(#Cc1ccccc1)SC1=C(c2ccccc2)S/C(=C(\SC#Cc2ccccc2)c2ccccc2)S1 | > 100 µM (inactive) | > 100 µM (inactive) | > 100 µM (inactive) | > 100 µM (inactive) | > 100 µM (inactive) | > 100 µM (inactive) | > 100 µM (inactive) | > 100 µM (inactive) | > 100 µM (inactive) | > 100 µM (inactive) | > 100 µM (inactive) | > 100 µM (inactive) | > 100 µM (inactive) | > 100 µM (inactive) | > 100 µM (inactive) | > 100 µM (inactive) | > 100 µM (inactive) | > 100 µM (inactive) | –
CC(=O)c1sc(=N)n(-c2c(C)cccc2C)c1C | – | > 100 µM (inactive) | > 100 µM (inactive) | > 100 µM (inactive) | > 100 µM (inactive) | > 100 µM (inactive) | > 100 µM (inactive) | > 100 µM (inactive) | > 100 µM (inactive) | > 100 µM (inactive) | > 100 µM (inactive) | > 100 µM (inactive) | > 100 µM (inactive) | > 100 µM (inactive) | > 100 µM (inactive) | – | > 100 µM (inactive) | > 100 µM (inactive) | > 100 µM (inactive)
O=C(/N=N/c1ccc([N+](=O)[O-])cc1)NNc1ccc([N+](=O)[O-])cc1 | 18.9 µM (inactive) | 5.74 µM (inactive) | 15.4 µM (inactive) | 16.4 µM (inactive) | 15.5 µM (inactive) | 18.7 µM (inactive) | 13.5 µM (inactive) | 31.3 µM (inactive) | 15.8 µM (inactive) | 13.9 µM (inactive) | 10.9 µM (inactive) | 9.14 µM (inactive) | 11 µM (inactive) | 27 µM (inactive) | 13.3 µM (inactive) | – | – | 21.8 µM (inactive) | 4.46 µM (inactive)
COCCN(CCOC)C(=O)COc1c2cc(C(C)(C)C)cc1Cc1cc(C(C)(C)C)cc(c1OCC(=O)N(CCOC)CCOC)Cc1cc(C(C)(C)C)cc(c1OCC(=O)N(CCOC)CCOC)Cc1cc(C(C)(C)C)cc(c1OCC(=O)N(CCOC)CCOC)Cc1cc(C(C)(C)C)cc(c1OCC(=O)N(CCOC)CCOC)C2 | – | 2.81 µM (inactive) | 0.352 µM (active) | 3.33 µM (inactive) | 1.19 µM (inactive) | 0.877 µM (active) | 0.817 µM (active) | 0.908 µM (active) | 0.705 µM (active) | 1.32 µM (inactive) | 0.366 µM (active) | 1.27 µM (inactive) | 1.74 µM (inactive) | 1.34 µM (inactive) | 0.851 µM (active) | – | 0.518 µM (active) | 1.93 µM (inactive) | 3.17 µM (inactive)
COc1ccccc1/C=C/c1nc2ccccc2o1 | > 10 µM (inactive) | > 10 µM (inactive) | > 10 µM (inactive) | > 10 µM (inactive) | > 10 µM (inactive) | > 10 µM (inactive) | > 10 µM (inactive) | > 10 µM (inactive) | > 10 µM (inactive) | > 10 µM (inactive) | – | > 10 µM (inactive) | > 10 µM (inactive) | > 10 µM (inactive) | > 10 µM (inactive) | 6.19 µM (inactive) | > 10 µM (inactive) | > 10 µM (inactive) | > 10 µM (inactive)
Cn1ccc(C(=O)NCCN(CCNC(=O)c2ccn(C)c(=O)c2O)CCNC(=O)c2cccc(=O)n2O)c(O)c1=O | > 100 µM (inactive) | > 100 µM (inactive) | > 100 µM (inactive) | > 100 µM (inactive) | > 100 µM (inactive) | > 100 µM (inactive) | > 100 µM (inactive) | > 100 µM (inactive) | > 100 µM (inactive) | > 100 µM (inactive) | > 100 µM (inactive) | > 100 µM (inactive) | – | > 100 µM (inactive) | > 100 µM (inactive) | > 100 µM (inactive) | 56.4 µM (inactive) | > 100 µM (inactive) | > 100 µM (inactive)
COc1cccc(C2c3cc4c(cc3OC(N3CCCC3)C2C)OCO4)c1OC (configuration not stated) | 0.561 µM (active) | 2.01 µM (inactive) | 3.03 µM (inactive) | – | 4.37 µM (inactive) | 1.65 µM (inactive) | 2.49 µM (inactive) | 2.65 µM (inactive) | 2.77 µM (inactive) | 2.87 µM (inactive) | 2.27 µM (inactive) | 2.47 µM (inactive) | 2.77 µM (inactive) | 1.58 µM (inactive) | 3.02 µM (inactive) | – | 3.08 µM (inactive) | 2.89 µM (inactive) | –
CCOC(=O)/C=C(/C(=O)OCC)n1ccc(=O)n(Cc2cnnn2CCCCOC(C)=O)c1=O | 30.2 µM (inactive) | > 100 µM (inactive) | 27.9 µM (inactive) | > 100 µM (inactive) | > 100 µM (inactive) | 20.1 µM (inactive) | 51.2 µM (inactive) | > 100 µM (inactive) | 2.2 µM (inactive) | > 100 µM (inactive) | > 100 µM (inactive) | > 100 µM (inactive) | 20.4 µM (inactive) | > 100 µM (inactive) | > 100 µM (inactive) | 0.0305 µM (active) | > 100 µM (inactive) | > 100 µM (inactive) | –
C1CCCCC2(CCCCCCCCC3(CCC1)SCCS3)SCCS2 | > 100 µM (inactive) | > 100 µM (inactive) | > 100 µM (inactive) | > 100 µM (inactive) | > 100 µM (inactive) | > 100 µM (inactive) | > 100 µM (inactive) | > 100 µM (inactive) | – | > 100 µM (inactive) | – | > 100 µM (inactive) | – | > 100 µM (inactive) | > 100 µM (inactive) | > 100 µM (inactive) | > 100 µM (inactive) | > 100 µM (inactive) | > 100 µM (inactive)
CC1=NN2C(=O)CC(=O)N=C2S1 | > 100 µM (inactive) | > 100 µM (inactive) | > 100 µM (inactive) | > 100 µM (inactive) | > 100 µM (inactive) | > 100 µM (inactive) | > 100 µM (inactive) | > 100 µM (inactive) | > 100 µM (inactive) | > 100 µM (inactive) | – | > 100 µM (inactive) | > 100 µM (inactive) | > 100 µM (inactive) | > 100 µM (inactive) | > 100 µM (inactive) | > 100 µM (inactive) | > 100 µM (inactive) | –
Cc1cc(N(CCC#N)CCC#N)ccc1/C=N/NC(=O)c1cc(Cl)ccc1O | > 100 µM (inactive) | > 100 µM (inactive) | > 100 µM (inactive) | – | > 100 µM (inactive) | – | – | > 100 µM (inactive) | > 100 µM (inactive) | > 100 µM (inactive) | – | > 100 µM (inactive) | 36.9 µM (inactive) | – | > 100 µM (inactive) | – | – | 72.6 µM (inactive) | > 100 µM (inactive)
CC(NC(=O)C(NC(=O)OC(C)(C)C)C(C)C)C(=O)NCC(=O)O (stereo not drawn) (Boc-Val-Ala-Gly-OH; configuration not given here) | > 100 µM (inactive) | > 100 µM (inactive) | > 100 µM (inactive) | > 100 µM (inactive) | > 100 µM (inactive) | > 100 µM (inactive) | > 100 µM (inactive) | > 100 µM (inactive) | – | > 100 µM (inactive) | > 100 µM (inactive) | > 100 µM (inactive) | > 100 µM (inactive) | > 100 µM (inactive) | > 100 µM (inactive) | > 100 µM (inactive) | > 100 µM (inactive) | > 100 µM (inactive) | –
